“And” between values parts separate entries of the source, which are not always exact repeats. Equal values may be shown once. Inconclusive results and toxic doses are left out.
Test system: CD2F1 mice, L1210 leukemia ip, survival T/C
Assay: NCI In Vivo Anticancer Drug Screen. Data for tumor model L1210 Leukemia (intraperitoneal) in CD2F1 (CDF1) mice
Settings: higher = longer survival
Method in brief: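 Antitumor effect is scored in animals hosting a serially transplanted tumor. Values compare compound-dosed animals against vehicle-only controls as a simple quotient.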

[1] = endpoint: mean survival time, dose: 100.0 mg/kg/injection, schedule: Q01DX009 (ip), vehicle: Klucel (hydroxypropylcellulose) (HPC)
[2] = endpoint: mean survival time, dose: 200.0 mg/kg/injection, schedule: Q01DX009 (ip), vehicle: Klucel (hydroxypropylcellulose) (HPC)
[3] = endpoint: mean survival time, dose: 1.25 mg/kg/injection, schedule: Q01DX009 (ip), vehicle: saline with Tween-80
[4] = endpoint: mean survival time, dose: 2.5 mg/kg/injection, schedule: Q01DX009 (ip), vehicle: saline with Tween-80
[5] = endpoint: mean survival time, dose: 5.0 mg/kg/injection, schedule: Q01DX009 (ip), vehicle: saline with Tween-80
[6] = endpoint: mean survival time, dose: 12.5 mg/kg/injection, schedule: Q01DX005 (ip), vehicle: water
[7] = endpoint: mean survival time, dose: 25.0 mg/kg/injection, schedule: Q01DX005 (ip), vehicle: water
[8] = endpoint: mean survival time, dose: 50.0 mg/kg/injection, schedule: Q01DX005 (ip), vehicle: water
[9] = endpoint: mean survival time, dose: 100.0 mg/kg/injection, schedule: Q01DX005 (ip), vehicle: water
[10] = endpoint: mean survival time, dose: 100.0 mg/kg/injection, schedule: Q04DX003 (ip), vehicle: saline with Tween-80
[11] = endpoint: mean survival time, dose: 200.0 mg/kg/injection, schedule: Q04DX003 (ip), vehicle: saline with Tween-80
[12] = endpoint: mean survival time, dose: 400.0 mg/kg/injection, schedule: Q04DX003 (ip), vehicle: saline with Tween-80
[13] = endpoint: mean survival time, dose: 25.0 mg/kg/injection, schedule: Q01DX009 (ip), vehicle: saline with Tween-80
[14] = endpoint: mean survival time, dose: 50.0 mg/kg/injection, schedule: Q01DX009 (ip), vehicle: saline with Tween-80
[15] = endpoint: mean survival time, dose: 100.0 mg/kg/injection, schedule: Q01DX009 (ip), vehicle: saline with Tween-80
[16] = endpoint: mean survival time, dose: 200.0 mg/kg/injection, schedule: Q01DX009 (ip), vehicle: saline with Tween-80
[17] = endpoint: mean survival time, dose: 100.0 mg/kg/injection, schedule: Q01DX001 (ip), vehicle: saline with Tween-80
[18] = endpoint: mean survival time, dose: 200.0 mg/kg/injection, schedule: Q01DX001 (ip), vehicle: saline with Tween-80
[19] = endpoint: mean survival time, dose: 400.0 mg/kg/injection, schedule: Q01DX001 (ip), vehicle: saline with Tween-80
[20] = endpoint: mean survival time, dose: 400.0 mg/kg/injection, schedule: Q01DX009 (ip), vehicle: saline with Tween-80

Cc1cc(Cl)ccc1N=Cc1ccc2c(c1)OCO2
T/C (endpoint: mean survival time, dose: 100.0 mg/kg/injection, schedule: Q01DX001 (ip), vehicle: Klucel (hydroxypropylcellulose) (HPC)): 95 % of control | T/C [1]: 108 % of control | T/C (endpoint: mean survival time, dose: 200.0 mg/kg/injection, schedule: Q01DX001 (ip), vehicle: Klucel (hydroxypropylcellulose) (HPC)): 102 % of control | T/C [2]: 105 % of control | T/C (endpoint: mean survival time, dose: 400.0 mg/kg/injection, schedule: Q01DX001 (ip), vehicle: Klucel (hydroxypropylcellulose) (HPC)): 95 % of control | T/C (endpoint: mean survival time, dose: 400.0 mg/kg/injection, schedule: Q01DX009 (ip), vehicle: Klucel (hydroxypropylcellulose) (HPC)): 98 % of control

c1ccc([O+](c2ccccc2)c2ccccc2)cc1
T/C (endpoint: mean survival time, dose: 0.63 mg/kg/injection, schedule: Q01DX009 (ip), vehicle: saline with Tween-80): 102 % of control | T/C [3]: 113 % of control | T/C [4]: 107 % of control | T/C [5]: 90 % of control and 112 % of control

CN=C(N)N(C)C
T/C (endpoint: mean survival time, dose: 100.0 mg/kg/injection, schedule: Q01DX001 (ip), vehicle: saline): 101 % of control | T/C (endpoint: mean survival time, dose: 200.0 mg/kg/injection, schedule: Q01DX001 (ip), vehicle: saline): 101 % of control | T/C (endpoint: mean survival time, dose: 400.0 mg/kg/injection, schedule: Q01DX001 (ip), vehicle: saline): 95 % of control

O=[N+]([O-])C(Br)(CO)CO
T/C (endpoint: mean survival time, dose: 4.7 mg/kg/injection, schedule: Q01DX009 (ip), vehicle: saline): 101 % of control | T/C (endpoint: mean survival time, dose: 4.7 mg/kg/injection, schedule: Q04DX003 (ip), vehicle: saline): 98 % of control | T/C (endpoint: mean survival time, dose: 9.4 mg/kg/injection, schedule: Q01DX009 (ip), vehicle: saline): 101 % of control | T/C (endpoint: mean survival time, dose: 9.4 mg/kg/injection, schedule: Q04DX003 (ip), vehicle: saline): 96 % of control | T/C (endpoint: mean survival time, dose: 18.8 mg/kg/injection, schedule: Q01DX001 (ip), vehicle: saline): 102 % of control | T/C (endpoint: mean survival time, dose: 18.8 mg/kg/injection, schedule: Q01DX009 (ip), vehicle: saline): 95 % of control | T/C (endpoint: mean survival time, dose: 18.8 mg/kg/injection, schedule: Q04DX003 (ip), vehicle: saline): 105 % of control

Cc1nc2c(ncn2C2OC3COP(=O)(O)OC3C2O)c2nccn12 (centres undefined)
T/C [6]: 95 % of control | T/C [7]: 100 % of control | T/C [8]: 90 % of control | T/C [9]: 106 % of control

CCOC(=O)CCC(NC(=O)c1ccc(NCC2CCc3nc(N)[nH]c(=O)c3N2)cc1)C(=O)OCC (centres undefined)
T/C (endpoint: median survival time, dose: 10.0 mg/kg/injection, schedule: Q01DX005 (ip), vehicle: distilled water + Tween-80): 97 % of control | T/C (endpoint: median survival time, dose: 20.0 mg/kg/injection, schedule: Q01DX005 (ip), vehicle: distilled water + Tween-80): 102 % of control | T/C (endpoint: median survival time, dose: 40.0 mg/kg/injection, schedule: Q01DX005 (ip), vehicle: distilled water + Tween-80): 100 % of control | T/C (endpoint: median survival time, dose: 80.0 mg/kg/injection, schedule: Q01DX005 (ip), vehicle: distilled water + Tween-80): 96 % of control | T/C (endpoint: median survival time, dose: 160.0 mg/kg/injection, schedule: Q01DX005 (ip), vehicle: distilled water + Tween-80): 100 % of control

Cc1cccc(NNC(=S)Nc2ccccc2)c1
T/C (endpoint: mean survival time, dose: 100.0 mg/kg/injection, schedule: Q04DX003 (ip), vehicle: saline): 94 % of control | T/C (endpoint: mean survival time, dose: 200.0 mg/kg/injection, schedule: Q04DX003 (ip), vehicle: saline): 100 % of control | T/C (endpoint: mean survival time, dose: 400.0 mg/kg/injection, schedule: Q04DX003 (ip), vehicle: saline): 100 % of control

C=CCC#N
T/C (endpoint: mean survival time, dose: 100.0 mg/kg/injection, schedule: Q04DX003 (ip), vehicle: saline sonified): 90 % of control

CC(C)C1=CC2=CCC3C(C)(CN)CCCC3(C)C2CC1CCN (centres undefined)
T/C [3]: 101 % of control | T/C [4]: 97 % of control | T/C [5]: 94 % of control

O=c1[nH]c(C(Cl)(Cl)Cl)nc2ccc(Cl)cc12
T/C [10]: 101 % of control | T/C [11]: 96 % of control | T/C [12]: 98 % of control

Cc1nc(N)sc1S(=O)(=O)F
T/C [13]: 97 % of control | T/C [14]: 111 % of control | T/C [15]: 94 % of control and 108 % of control | T/C [16]: 101 % of control

O=c1[nH]cc(NCCCCc2ccccc2)c(=O)[nH]1
T/C [17]: 94 % of control | T/C [18]: 95 % of control | T/C [19]: 92 % of control

CC(=O)Nc1ccc(C)cc1Cl
T/C [17]: 96 % of control | T/C [18]: 100 % of control | T/C [19]: 93 % of control

CC1CCC2N(C1)CC1C(C(O)C(O)C3(O)C1CC14OC5(O)C(O)CCC1(C)C5CC(O)C34)C2(C)O (centres undefined)
T/C [14]: 105 % of control | T/C [15]: 116 % of control | T/C [16]: 105 % of control

O=CNO
T/C [17]: 108 % of control | T/C [18]: 104 % of control | T/C [19]: 104 % of control

CC1=CC(=C2C=C(C)C(=O)C(C)=C2)C=C(C)C1=O
T/C (endpoint: mean survival time, dose: 50.0 mg/kg/injection, schedule: Q01DX001 (ip), vehicle: saline with Tween-80): 87 % of control | T/C [17]: 87 % of control | T/C [18]: 91 % of control

COc1ccc(OC)c(C)c1
T/C [15]: 105 % of control | T/C [16]: 107 % of control | T/C [20]: 104 % of control

CC(=S)NC(O)C(=O)c1ccccc1 (centres undefined)
T/C (endpoint: mean survival time, dose: 12.5 mg/kg/injection, schedule: Q01DX009 (ip), vehicle: saline with Tween-80): 101 % of control | T/C [13]: 98 % of control | T/C [14]: 98 % of control | T/C [15]: 104 % of control | T/C [16]: 93 % of control | T/C [20]: 115 % of control

CC(C)(C[P+](C)(c1ccccc1)c1ccccc1)c1ccccc1
T/C (endpoint: mean survival time, dose: 50.0 mg/kg/injection, schedule: Q04DX002 (ip), vehicle: saline with Tween-80): 98 % of control | T/C (endpoint: mean survival time, dose: 100.0 mg/kg/injection, schedule: Q04DX002 (ip), vehicle: saline with Tween-80): 102 % of control

O=Nc1c(-c2ccccc2)n(O)[n+]([O-])c1-c1ccccc1
T/C (endpoint: mean survival time, dose: 50.0 mg/kg/injection, schedule: Q01DX009 (ip), vehicle: Klucel (hydroxypropylcellulose) (HPC)): 89 % of control | T/C [1]: 89 % of control | T/C [2]: 97 % of control

O=C(c1cc2c3ccccc3ccc2c2ccccc12)C(Br)Br
T/C [13]: 106 % of control | T/C [14]: 103 % of control | T/C [15]: 100 % of control | T/C [10]: 93 % of control

CC(=O)N1C2=CCCC3CCCCC23c2ccccc21 (centres undefined)
T/C [15]: 103 % of control | T/C [10]: 96 % of control | T/C [16]: 101 % of control | T/C [11]: 92 % of control | T/C [20]: 98 % of control | T/C [12]: 101 % of control

CC(=O)C(c1ccccc1)N(C)C(=O)c1ccccc1 (centres undefined)
T/C (endpoint: mean survival time, dose: 100.0 mg/kg/injection, schedule: Q01DX009 (ip), vehicle: saline): 95 % of control | T/C (endpoint: mean survival time, dose: 200.0 mg/kg/injection, schedule: Q01DX009 (ip), vehicle: saline): 94 % of control | T/C (endpoint: mean survival time, dose: 400.0 mg/kg/injection, schedule: Q01DX009 (ip), vehicle: saline): 104 % of control

CCN(CC)CCNC(=O)C(O)C1CCCCC1 (centres undefined)
T/C (endpoint: mean survival time, dose: 75.0 mg/kg/injection, schedule: Q01DX001 (ip), vehicle: other): 90 % of control

CC(=O)Oc1c(Cl)cc(Cl)c(Cl)c1[N+](=O)[O-]
T/C [17]: 93 % of control | T/C [18]: 93 % of control

CC(C)OC(=O)c1cc([N+](=O)[O-])cc([N+](=O)[O-])c1Sc1ncnc2nc[nH]c12
T/C (endpoint: mean survival time, dose: 0.63 mg/kg/injection, schedule: Q01DX005 (ip), vehicle: other): 115 % of control | T/C (endpoint: mean survival time, dose: 1.25 mg/kg/injection, schedule: Q01DX005 (ip), vehicle: other): 118 % of control | T/C (endpoint: mean survival time, dose: 2.5 mg/kg/injection, schedule: Q01DX005 (ip), vehicle: other): 115 % of control | T/C (endpoint: mean survival time, dose: 18.8 mg/kg/injection, schedule: Q01DX005 (ip), vehicle: other): 156 % of control

CCOC(=O)Nc1ccc(F)cc1C
T/C [10]: 97 % of control | T/C [11]: 97 % of control | T/C [12]: 95 % of control

O=c1nc(NC2CCCCCCCCCCC2)ccn1C1OC(CO)C(O)C1O (centres undefined)
T/C (endpoint: median survival time, dose: 12.5 mg/kg/injection, schedule: Q01DX005 (ip), vehicle: distilled water + Tween-80): 101 % of control | T/C (endpoint: median survival time, dose: 25.0 mg/kg/injection, schedule: Q01DX005 (ip), vehicle: distilled water + Tween-80): 102 % of control | T/C (endpoint: median survival time, dose: 50.0 mg/kg/injection, schedule: Q01DX005 (ip), vehicle: distilled water + Tween-80): 105 % of control | T/C (endpoint: median survival time, dose: 100.0 mg/kg/injection, schedule: Q01DX005 (ip), vehicle: distilled water + Tween-80): 93 % of control | T/C (endpoint: median survival time, dose: 200.0 mg/kg/injection, schedule: Q01DX005 (ip), vehicle: distilled water + Tween-80): 86 % of control

O=[N+]([O-])c1cccn2nc(C3OC(CO)C(O)C3O)nc12 (centres undefined)
T/C [6]: 96 % of control | T/C [7]: 97 % of control | T/C [8]: 94 % of control | T/C [9]: 100 % of control

From PubChem BioAssay AID256 (DTP/NCI, 2004)
